Here are results for seven molecules from DBAASP.

Holding throughout (test): ≥ marks a high value that may be exact or a test limit, other limits are often not marked, values filed in µg/mL are converted to µM
For assay [1], the system named is Pseudomonas syringae pv. syringae DSM 10604.
Assay [2] has as its system Staphylococcus aureus 90857.
The subject of assay [3] is Alternaria alternata.
In assay [4] the test system is Pseudomonas corrugata DSM 7228.
For assay [5], the system named is Pseudomonas syringae pv. tomato DC3000.
The test system of assay [6] is Botrytis cinerea.
Assay [7] deals with Clavibacter michiganensis subsp. michiganensis DSM 46294.
Assay [8] concerns Pectobacterium carotovorum subsp. carotovorum DSM 30168.
The subject of assay [9] is Xanthomonas vesicatoria DSM 50861.
Assay [10] has as its system Cladosporium herbarum.
The test system of assay [11] is Micrococcus luteus ATCC 10240.
For assay [12], the system named is Staphylococcus aureus ATCC 15752.
The subject of assay [13] is Pseudomonas aeruginosa ATCC 27853.
Assay [14] relates to Saccharomyces cerevisiae ATCC 44774.
Assay [15] concerns Bacillus subtilis KCTC 3038.
In assay [16] the test system is Cryptococcus neoformans ATCC 34881.
The test system of assay [17] is Candida albicans ATCC 10231.
Assay [18] deals with Enterococcus faecalis ATCC 29212.
In assay [19] the test system is Salmonella typhimurium KCTC 2370.
The subject of assay [20] is Escherichia coli ATCC 27325.
In assay [21] the test system is Enterococcus faecalis CGMCC 1.595.
The subject of assay [22] is Escherichia coli AS1.349.
For assay [23], the system named is Lactococcus lactis AS1.1690.
Assay [24] has as its system Enterococcus faecium CGMCC 1.2334.
The test system of assay [25] is Staphylococcus aureus AS1.72.
Assay [26] has as its system Pseudomonas aeruginosa CGMCC 1.860.
For assay [27], the system named is Bacillus cereus AS1.126.
Assay [28] relates to Cronobacter sakazakii DPC 6440.
In assay [29] the test system is Listeria monocytogenes LO28.
Assay [30] relates to Bacillus subtilis ATCC 6633.
For assay [31], the system named is Staphylococcus aureus FDA 209P.
Assay [32] deals with Escherichia coli O111.
Assay [33] relates to Escherichia coli ATCC 25922.

In brackets after ≈: the same amount, converted by molar mass.

As usually defined, the MIC is the lowest concentration that inhibits growth of the organism. Read a high MIC as a need for much substance.

In the case of `CC(C)C[C@H](NC(=O)[C@H](CC(C)C)NC(=O)[C@H](CCCCN)NC(=O)[C@H](CCCCN)NC(=O)[C@H](CC(C)C)NC(=O)[C@H](CC(C)C)NC(=O)[C@H](CCCCN)NC(=O)[C@H](CCCCN)NC(=O)[C@H](CC(C)C)NC(=O)[C@H](C)NC(=O)[C@H](CCCCN)NC(=O)[C@H](CC(C)C)NC(=O)[C@@H](N)CC(C)C)C(N)=O` [LLKALKKLLKKLL], the MIC in [1] was 6.57 µM (≈ 9.99 µg/mL); in assay [2] it was 1.5 µM (≈ 2.28 µg/mL); in [3], no less than 65.7 µM; in assay [4], 26.3 µM (≈ 40 µg/mL); in [5], 6.57 µM (≈ 9.99 µg/mL); in assay [6], no less than 65.7 µM. Also, the MIC in assay [7] was 6.57 µM (≈ 9.99 µg/mL); in assay [8], 26.3 µM (≈ 40 µg/mL); in assay [9], 3.29 µM (≈ 5 µg/mL); in [10], 26.3 µM (≈ 40 µg/mL).
Take `CC(C)[C@H](NC(=O)CNC(=O)[C@H](CCC(N)=O)NC(=O)[C@@H](NC(=O)[C@@H](NC(=O)[C@@H]1CCCN1C(=O)[C@H](CCCN=C(N)N)NC(=O)[C@@H](NC(=O)CNC(=O)[C@@H](N)CCCN=C(N)N)C(C)C)C(C)C)C(C)C)C(=O)N[C@@H](CCCCN)C(=O)N[C@@H](CCC(=O)O)C(=O)N[C@@H](CCCCN)C(=O)N[C@H](C(=O)N[C@@H](CCCN=C(N)N)C(=O)O)C(C)C` [RGVRPVVQGVKEKVR]: the minimum inhibitory concentration (MIC) in assay [11] was no less than 37.5 µM; in assay [12], no less than 37.5 µM; in [13], greater than 37.5 µM; in assay [14], no less than 37.5 µM; in assay [15], no less than 37.5 µM; in assay [16], no less than 37.5 µM. The minimum inhibitory concentration (MIC) is greater than 37.5 µM in assay [17], greater than 37.5 µM in assay [18], no less than 37.5 µM in assay [19] and no less than 37.5 µM in assay [20].
For `NC(N)=NCCC[C@H](NC(=O)[C@H](Cc1cnc[nH]1)NC(=O)[C@H](Cc1c[nH]c2ccccc12)NC(=O)[C@H](Cc1ccccc1)NC(=O)[C@H](CCCN=C(N)N)NC(=O)[C@@H](N)CCCN=C(N)N)C(=O)O` [RRFWHR], the minimal inhibitory concentration (MIC) in assay [21], in assay [22], in [23], in assay [24], in assay [25] and in [26] was no less than 100 µM each time. In addition, in assay [27], the MIC was no less than 100 µM.
Regarding `CC[C@H](C)[C@H](NC(=O)[C@@H](N)Cc1c[nH]c2ccccc12)C(=O)N[C@@H](CCC(N)=O)C(=O)N1CCC[C@H]1C(=O)N[C@@H](CCCCN)C(=O)N[C@H](C(=O)N[C@@H](CCCCN)C(=O)N[C@H](C(=O)N[C@@H](C)C(=O)N1CCC[C@H]1C(=O)N[C@@H](Cc1ccc(O)cc1)C(=O)N[C@H](C(=O)N[C@@H](CCCN=C(N)N)C(=O)N[C@@H](Cc1ccc(O)cc1)C(=O)N[C@@H](CC(C)C)C(=O)O)C(C)C)C(C)C)[C@@H](C)O` [WIQPKTKVAPYVRYL], the results for the minimal inhibitory concentration (MIC) in [28] and in assay [29] were no less than 78.1 µM and 19.5 µM (≈ 36.4 µg/mL), respectively.
Consider `CC(C)C[C@H](NC(=O)[C@H](CC(C)C)NC(=O)[C@H](CCCCN)NC(=O)[C@@H](NC(=O)[C@H](CCCN=C(N)N)NC(=O)[C@H](CCCCN)NC(=O)[C@H](CCCCN)NC(=O)[C@@H](N)CCCN=C(N)N)C(C)C)C(=O)N[C@@H](CCCCN)C(=O)N[C@@H](CCCN=C(N)N)C(=O)N[C@@H](CC(C)C)C(=O)N[C@H](C(N)=O)C(C)C` [RKKRVKLLKRLV], for which the MIC in assay [1] is 1.63 µM (≈ 2.5 µg/mL); in assay [2] it was no less than 62.5 µM; in [4] it was 0.325 µM (≈ 0.5 µg/mL); in assay [5], 3.25 µM (≈ 5 µg/mL); in assay [7], 6.51 µM (≈ 9.99 µg/mL); in assay [8], 6.51 µM (≈ 9.99 µg/mL). The molecule further yielded an MIC in assay [9] of 3.25 µM (≈ 5 µg/mL).
In the case of `CC[C@H](C)[C@H](NC(=O)[C@@H](N)Cc1c[nH]c2ccccc12)C(=O)N[C@@H](CCC(N)=O)C(=O)N1CCC[C@H]1C(=O)N[C@@H](CCCCN)C(=O)N[C@H](C(=O)N[C@@H](CCCCN)C(=O)N[C@H](C(=O)N[C@H](C(=O)N1CCC[C@H]1C(=O)N[C@@H](C)C(=O)N[C@H](C(=O)N[C@@H](CCCN=C(N)N)C(=O)N[C@@H](Cc1ccc(O)cc1)C(=O)N[C@@H](CC(C)C)C(=O)O)C(C)C)[C@@H](C)CC)C(C)C)[C@@H](C)O` [WIQPKTKVIPAVRYL], the MIC in assay [28] is no less than 78.1 µM; in assay [29] it was no less than 39.1 µM.
Turning to `CC[C@H](C)[C@H](NC(=O)[C@@H](NC(=O)CN)C(C)C)C(=O)N[C@H](C(=O)N[C@@H](CC(=O)O)C(=O)N[C@@H](C)C(=O)N[C@@H](CC(C)C)C(=O)N[C@@H](CCCCN)C(=O)NCC(=O)N[C@@H](C)C(=O)N[C@@H](C)C(=O)N[C@@H](CCCCN)C(=O)N[C@H](C(=O)N[C@H](C(=O)N[C@@H](C)C(=O)N[C@@H](C)C(=O)N[C@@H](CCC(=O)O)C(=O)N[C@@H](CC(C)C)C(=O)N[C@@H](CC(C)C)C(=O)N[C@@H](CCCN=C(N)N)C(=O)N[C@@H](CCCCN)C(=O)N[C@@H](C)C(=O)N[C@@H](Cc1cnc[nH]1)C(=O)N[C@H]1CSSC[C@@H](C(=O)O)NC(=O)[C@H](CO)NC(=O)[C@H](CC(N)=O)NC(=O)[C@H]([C@@H](C)O)NC(=O)[C@H](CC(C)C)NC(=O)[C@H](CCCCN)NC1=O)C(C)C)[C@@H](C)O)[C@@H](C)O` [GVITDALKGAAKTVAAELLRKAHCKLTNSC], the minimal inhibitory concentration (MIC) was found to be 20.8 µM (≈ 64 µg/mL) in assay [30], 5.35 µM (≈ 16.5 µg/mL) in [31], 2.66 µM (≈ 8.19 µg/mL) in assay [32] and 2.66 µM (≈ 8.19 µg/mL) in assay [33].
